We go through one compound from patent publication US20220288001A1, “CREATINE FOR IMMUNOTHERAPY” (The Regents of the University of California, priority 2019, published 2022).

Data set [1] is described as follows: Creatine quantification in serum after creatine supplementation. Type of data set: in vivo, mouse. The note with it: C57BL/6J WT mice, B16-OVA model; i.p. injection or dietary supplementation (0.4 g/kg body weight), both routes. An excerpt:
A Creatine Assay Kit (Cat #ab65339, Abcam) was utilized to quantify creatine, both in vivo and in vitro, following the manufacturer's instructions. For the in vivo study, whole blood was collected (retro-orbital bleeding) from the experimental mice in a capillary tube, and the isolated serum was immediately used for the assay following the manufacturer's directions. For the in vitro study, cells were spun to remove culture media and suspended in cold PBS. Creatine was then quantified following the manufacturer's directions. The total amount of creatine detected was then normalized to cell numbers.
For creatine supplementation via i.p. injection, ceatine monohydrate (cat #C3630, Sigma-Aldrich) was dissolved in sterile PBS and i.p. injected to experimental animals daily at a dose of 10.5 mg per animal per injection.
For creatine supplementation via diet, experimental animals were fed a creatine-enriched isocaloric diet which is a customized formulation based on PicoLab Rodent Diet 20 enriched in creatine (3 g/Kg diet, cat #TD.170082, Envigo Teklad Diet). The diet was designed to reflect the safe daily dose of creatine recommended for enhanced athletic performance in humans (Mayo Clinic data). Non-treated mice (Ctrl) were fed a control diet prepared in a manner similar to that of the creatine-enriched diet.

Data set [2] relates to B16-OVA tumors. Put plainly: B16-OVA tumors in immunodeficient NSG mice, creatine supplementation. The format is in vivo, mouse. The note with it: i.p. creatine.
Data set [3] has as its system B16-OVA tumors. Put plainly: B16-OVA tumors in C57BL/6J WT mice depleted of T cells by anti-CD3 antibody, creatine supplementation. The format is in vivo, mouse. The note with it: B16-OVA in C57BL/6J WT mice depleted of T cells via i.p. anti-CD3 depletion antibody. On the procedure: To establish solid tumors, mice were s.c. injected above the right flank with 1×10^6 B16-OVA or 3×10^5 MC38 cells. Before injection, cells in log phase of growth were harvested and suspended in phosphate-buffered saline (PBS), and 50 μl of cell suspension were injected subcutaneously above the flank. Tumor size was periodically measured with a digital Vernier caliper (Thermo Fisher Scientific). For creatine supplementation via i.p. injection, […] monohydrate (cat #C3630, Sigma-Aldrich) was dissolved in sterile PBS and i.p. injected to experimental animals daily at a dose of 10.5 mg per animal per injection. To study the effects of creatine supplementation on suppressing tumor growth, B6 mice were inoculated with B16-OVA tumor cells and monitored for tumor growth, with or without receiving creatine supplementation via i.p. injection or diet. […] To study the T cell-dependence of creatine supplementation induced anti-tumor effects, B6-OVA tumor growth was monitored and compared in B6 mice receiving i.p. injection of an anti-CD3 T cell depleting antibody ([…]; 100 μg/mouse/injection, twice per week) or an isotype control antibody (clone LTF-2, 100 μg/mouse/injection, twice per week), with or without i.p. supplement of creatine.

Data set [4] deals with MC38 colon cancer. As to the kind of experiment: MC38 colon cancer model, creatine supplementation and anti-PD-1 treatment. Type of data set: in vivo, mouse. The note with it: MC38 (CrT-negative); creatine supplementation alone. As for the experimental part:
To establish solid tumors, mice were s.c. injected above the right flank with 1×10^6 B16-OVA or 3×10^5 MC38 cells. Before injection, cells in log phase of growth were harvested and suspended in phosphate-buffered saline (PBS), and 50 μl of cell suspension were injected subcutaneously above the flank. Tumor size was periodically measured with a digital Vernier caliper (Thermo Fisher Scientific). For creatine supplementation via i.p. injection, […] monohydrate (cat #C3630, Sigma-Aldrich) was dissolved in sterile PBS and i.p. injected to experimental animals daily at a dose of 10.5 mg per animal per injection. To study the combination effects of creatine supplementation and PD-1/PD-L1 blockade treatment, B6 mice were inoculated with MC38 tumor cells and monitored for tumor growth; experimental mice also received i.p. supplement of creatine, as well as i.p. injection of an anti-PD-1 blocking antibody (clone RMP1-14; 300 μg/mouse/injection, twice per week) or an isotype control antibody (clone 2A3; 300 μg/mouse/injection, twice per week), alone or in combination. Tumor-free mice were maintained for three months, then challenged with MC38 tumor cells again and monitored for tumor recurrence over another 6-month period.

In data set [5] the test system is cancer growth. The note with it: early studies (Kristensen et al., 1999; Miller et al., 1993); cited from earlier work.
For data set [6] the following is noted: humans (Kreider et al., 2017); cited from earlier work.

In the case of `CN(CC(=O)O)C(=N)N` [creatine], the “creatine concentrations in blood (serum)” value in data set [1] is “elevated creatine concentrations in blood to a similar level”. The tumor growth entry in data set [2] and in data set [3] was “could not be suppressed” throughout. In addition, the tumor suppression entry in data set [4] is on record as “tumor suppression benefits”. The “direct inhibition of cancer growth” value in data set [5] is “could directly inhibit cancer growth”. Moreover, in data set [6], the “safety of long-term supplementation” value was “well-documented safety”.
